Assays:
Type in all cases: nucleic-acid assay
Nucleic Acid [1] = test: (§1) DNA hybridizing activity at single stranded DNA assessed as thermal stability of duplexes formed between compound and complimentary ssDNA by measuring melting temperature at 4 uM in presence of 10 mM pH 7.2 sodium phosphate buffer containing 100 mM NaCl by UV based melting experiment
Nucleic Acid [2] = test: as §1, with “measuring change in” for “measuring”, “experiment relative to untreated control” for “experiment”
Nucleic Acid [3] = test: (§2) DNA hybridizing activity at single stranded RNA assessed as thermal stability of duplexes formed between compound and complimentary ssRNA by measuring melting temperature at 4 uM in presence of 10 mM pH 7.2 sodium phosphate buffer containing 100 mM NaCl by UV based melting experiment
Nucleic Acid [4] = test: as §2, with “measuring change in” for “measuring”, “experiment relative to untreated control” for “experiment”
Nucleic Acid [5] = test: (§3) DNA hybridizing activity at 22 bp double stranded DNA assessed as thermal stability of duplexes formed between compound and complimentary dsDNA by measuring melting temperature at 1.5 uM in presence of 7 mM pH 5.5 sodium phosphate buffer containing 140 mM K, 10 mM MgCl2 by UV based melting experiment
Nucleic Acid [6] = test: as §3, with “measuring change in” for “measuring”

`Cc1cn([C@H]2C[C@H](OP(=O)(O)OC[C@H]3O[C@@H](n4cc(C)c(=O)[nH]c4=O)C[C@@H]3OP(=O)(O)OC[C@H]3O[C@@H](n4cc(C)c(=O)[nH]c4=O)C[C@@H]3O[P@](=O)(OC[C@H]3O[C@@H](n4cc(C)c(=O)[nH]c4=O)C[C@@H]3OP(=O)(O)OC[C@H]3O[C@@H](n4cc(C)c(=O)[nH]c4=O)C[C@@H]3OP(=O)(O)OC[C@H]3O[C@@H](n4cc(C)c(=O)[nH]c4=O)C[C@@H]3OP(=O)(O)OC[C@H]3O[C@@H](n4ccc(N)nc4=O)C[C@@H]3OP(=O)(O)OC[C@H]3O[C@@H](n4ccc(N)nc4=O)C[C@@H]3OP(=O)(O)OC[C@H]3O[C@@H](n4ccc(N)nc4=O)C[C@@H]3OP(=O)(O)O)SCCN)[C@@H](COP(=O)(O)O[C@H]3C[C@H](n4ccc(N)nc4=O)O[C@@H]3COP(=O)(O)O[C@H]3C[C@H](n4ccc(N)nc4=O)O[C@@H]3COP(=O)(O)O[C@H]3C[C@H](n4ccc(N)nc4=O)O[C@@H]3CO)O2)c(=O)[nH]c1=O` was tested, and the Tm (Nucleic Acid [1]) was 41 °C, the ΔTm (Nucleic Acid [2]) was -1 °C and the Tm (Nucleic Acid [3]) was 43 °C. The ΔTm (Nucleic Acid [4]) was -3 °C, the Tm (Nucleic Acid [5]) was 24 °C and the ΔTm (Nucleic Acid [6]) was -2 °C.

With `Cc1cn([C@H]2C[C@H](OP(=O)(O)OC[C@H]3O[C@@H](n4cc(C)c(=O)[nH]c4=O)C[C@@H]3OP(=O)(O)OC[C@H]3O[C@@H](n4cc(C)c(=O)[nH]c4=O)C[C@@H]3O[P@](=O)(OC[C@H]3O[C@@H](n4cc(C)c(=O)[nH]c4=O)C[C@@H]3OP(=O)(O)OC[C@H]3O[C@@H](n4cc(C)c(=O)[nH]c4=O)C[C@@H]3OP(=O)(O)OC[C@H]3O[C@@H](n4cc(C)c(=O)[nH]c4=O)C[C@@H]3OP(=O)(O)OC[C@H]3O[C@@H](n4ccc(N)nc4=O)C[C@@H]3OP(=O)(O)OC[C@H]3O[C@@H](n4ccc(N)nc4=O)C[C@@H]3OP(=O)(O)OC[C@H]3O[C@@H](n4ccc(N)nc4=O)C[C@@H]3OP(=O)(O)O)SCCCCCCN)[C@@H](COP(=O)(O)O[C@H]3C[C@H](n4ccc(N)nc4=O)O[C@@H]3COP(=O)(O)O[C@H]3C[C@H](n4ccc(N)nc4=O)O[C@@H]3COP(=O)(O)O[C@H]3C[C@H](n4ccc(N)nc4=O)O[C@@H]3CO)O2)c(=O)[nH]c1=O` the Tm (Nucleic Acid [1]) was 37 °C, the ΔTm (Nucleic Acid [2]) was -5 °C and the Tm (Nucleic Acid [3]) was 41 °C. For the same molecule, the ΔTm (Nucleic Acid [4]) was -5 °C, the Tm (Nucleic Acid [5]) was 23 °C and the ΔTm (Nucleic Acid [6]) was -3 °C.

With `Cc1cn([C@H]2C[C@H](OP(=O)(O)OC[C@H]3O[C@@H](n4cc(C)c(=O)[nH]c4=O)C[C@@H]3OP(=O)(O)OC[C@H]3O[C@@H](n4cc(C)c(=O)[nH]c4=O)C[C@@H]3O[P@@](=O)(OC[C@H]3O[C@@H](n4cc(C)c(=O)[nH]c4=O)C[C@@H]3OP(=O)(O)OC[C@H]3O[C@@H](n4cc(C)c(=O)[nH]c4=O)C[C@@H]3OP(=O)(O)OC[C@H]3O[C@@H](n4cc(C)c(=O)[nH]c4=O)C[C@@H]3OP(=O)(O)OC[C@H]3O[C@@H](n4ccc(N)nc4=O)C[C@@H]3OP(=O)(O)OC[C@H]3O[C@@H](n4ccc(N)nc4=O)C[C@@H]3OP(=O)(O)OC[C@H]3O[C@@H](n4ccc(N)nc4=O)C[C@@H]3OP(=O)(O)O)SCCCN)[C@@H](COP(=O)(O)O[C@H]3C[C@H](n4ccc(N)nc4=O)O[C@@H]3COP(=O)(O)O[C@H]3C[C@H](n4ccc(N)nc4=O)O[C@@H]3COP(=O)(O)O[C@H]3C[C@H](n4ccc(N)nc4=O)O[C@@H]3CO)O2)c(=O)[nH]c1=O` the Tm (Nucleic Acid [1]) was 43 °C, the ΔTm (Nucleic Acid [2]) was 1 °C and the Tm (Nucleic Acid [3]) was 46 °C. The ΔTm (Nucleic Acid [4]) was 0 °C, the Tm (Nucleic Acid [5]) was 29 °C and the ΔTm (Nucleic Acid [6]) was 4 °C.

`Cc1cn([C@H]2C[C@H](OP(=O)(O)OC[C@H]3O[C@@H](n4cc(C)c(=O)[nH]c4=O)C[C@@H]3OP(=O)(O)OC[C@H]3O[C@@H](n4cc(C)c(=O)[nH]c4=O)C[C@@H]3O[P@@](=O)(OC[C@H]3O[C@@H](n4cc(C)c(=O)[nH]c4=O)C[C@@H]3OP(=O)(O)OC[C@H]3O[C@@H](n4cc(C)c(=O)[nH]c4=O)C[C@@H]3OP(=O)(O)OC[C@H]3O[C@@H](n4cc(C)c(=O)[nH]c4=O)C[C@@H]3OP(=O)(O)OC[C@H]3O[C@@H](n4ccc(N)nc4=O)C[C@@H]3OP(=O)(O)OC[C@H]3O[C@@H](n4ccc(N)nc4=O)C[C@@H]3OP(=O)(O)OC[C@H]3O[C@@H](n4ccc(N)nc4=O)C[C@@H]3OP(=O)(O)O)SCCN)[C@@H](COP(=O)(O)O[C@H]3C[C@H](n4ccc(N)nc4=O)O[C@@H]3COP(=O)(O)O[C@H]3C[C@H](n4ccc(N)nc4=O)O[C@@H]3COP(=O)(O)O[C@H]3C[C@H](n4ccc(N)nc4=O)O[C@@H]3CO)O2)c(=O)[nH]c1=O` showed a Tm (Nucleic Acid [1]) of 45 °C, a ΔTm (Nucleic Acid [2]) of 3 °C and a Tm (Nucleic Acid [3]) of 45 °C. For the same molecule, the ΔTm (Nucleic Acid [4]) was -1 °C, the Tm (Nucleic Acid [5]) was 29 °C and the ΔTm (Nucleic Acid [6]) was 4 °C.

`Cc1cn([C@H]2C[C@H](OP(=O)(O)OC[C@H]3O[C@@H](n4cc(C)c(=O)[nH]c4=O)C[C@@H]3OP(=O)(O)OC[C@H]3O[C@@H](n4cc(C)c(=O)[nH]c4=O)C[C@@H]3O[P@@](=O)(OC[C@H]3O[C@@H](n4cc(C)c(=O)[nH]c4=O)C[C@@H]3OP(=O)(O)OC[C@H]3O[C@@H](n4cc(C)c(=O)[nH]c4=O)C[C@@H]3OP(=O)(O)OC[C@H]3O[C@@H](n4cc(C)c(=O)[nH]c4=O)C[C@@H]3OP(=O)(O)OC[C@H]3O[C@@H](n4ccc(N)nc4=O)C[C@@H]3OP(=O)(O)OC[C@H]3O[C@@H](n4ccc(N)nc4=O)C[C@@H]3OP(=O)(O)OC[C@H]3O[C@@H](n4ccc(N)nc4=O)C[C@@H]3OP(=O)(O)O)SCCCCCN)[C@@H](COP(=O)(O)O[C@H]3C[C@H](n4ccc(N)nc4=O)O[C@@H]3COP(=O)(O)O[C@H]3C[C@H](n4ccc(N)nc4=O)O[C@@H]3COP(=O)(O)O[C@H]3C[C@H](n4ccc(N)nc4=O)O[C@@H]3CO)O2)c(=O)[nH]c1=O` was tested, and the Tm (Nucleic Acid [1]) was 44 °C, the ΔTm (Nucleic Acid [2]) was 2 °C and the Tm (Nucleic Acid [3]) was 44 °C. The ΔTm (Nucleic Acid [4]) was -2 °C, the Tm (Nucleic Acid [5]) was 27 °C and the ΔTm (Nucleic Acid [6]) was 2 °C.

With `Cc1cn([C@H]2C[C@H](OP(=O)(O)OC[C@H]3O[C@@H](n4cc(C)c(=O)[nH]c4=O)C[C@@H]3OP(=O)(O)OC[C@H]3O[C@@H](n4cc(C)c(=O)[nH]c4=O)C[C@@H]3O[P@](=O)(OC[C@H]3O[C@@H](n4cc(C)c(=O)[nH]c4=O)C[C@@H]3OP(=O)(O)OC[C@H]3O[C@@H](n4cc(C)c(=O)[nH]c4=O)C[C@@H]3OP(=O)(O)OC[C@H]3O[C@@H](n4cc(C)c(=O)[nH]c4=O)C[C@@H]3OP(=O)(O)OC[C@H]3O[C@@H](n4ccc(N)nc4=O)C[C@@H]3OP(=O)(O)OC[C@H]3O[C@@H](n4ccc(N)nc4=O)C[C@@H]3OP(=O)(O)OC[C@H]3O[C@@H](n4ccc(N)nc4=O)C[C@@H]3OP(=O)(O)O)SCCNCCN)[C@@H](COP(=O)(O)O[C@H]3C[C@H](n4ccc(N)nc4=O)O[C@@H]3COP(=O)(O)O[C@H]3C[C@H](n4ccc(N)nc4=O)O[C@@H]3COP(=O)(O)O[C@H]3C[C@H](n4ccc(N)nc4=O)O[C@@H]3CO)O2)c(=O)[nH]c1=O` the Tm (Nucleic Acid [1]) was 40 °C, the ΔTm (Nucleic Acid [2]) was -2 °C and the Tm (Nucleic Acid [3]) was 44 °C. It also gave a ΔTm (Nucleic Acid [4]) of -2 °C, a Tm (Nucleic Acid [5]) of 25 °C and a ΔTm (Nucleic Acid [6]) of -1 °C.
